Several values for one entry are separate records, joined by “and”; a condition that tells them apart may be missing. Equal values may be shown once. Where a name gives a salt, the structure may show the parent alone. Read-outs that look alike come from different tables or passages of the source. One block for each molecule: values may come before it.
Columns and labels:
[1] = Example 2: complexing agents with hydrogen peroxide to oxidize and dissolve gallium arsenide (Table 3)
[2] = Aqueous solubilities of N-alkylalkano and N-H hydroxamic acids (Table 1); format: physicochemical
Text: It is desirable that the N-organo hydroxamic acid have low solubility in water in order to effect ready separation of the chelated gallium from the aqueous oxidizing medium.
For the extraction to occur, it is necessary that the extractant have some slight solubility in the aqueous Ga-containing medium.

[3] = Hydrolysis of hydroxamic acids in gallium extraction, washing and stripping procedures (Table 2); format: physicochemical; settings: hydrolysis after gallium extraction, spectrophotographic analysis
Description: The extent of hydrolysis of some hydroxamic acids used in some gallium extraction, washing and stripping procedures was determined by spectrophotographic analysis of the solution after completion of the procedures, with results as reported in Table 2.
The procedures and further information on the hydrolytic stability of N-alkyl hydroxamic acids are reported in the aforesaid copending application Ser. No. 937,849. The hydrolytic stability of the N-alkyl hydroxamic acids is an advantage for their use in the present invention.

[4] = Solubility in a typical phosphate rock treater dust leachate; format: physicochemical; settings: leachate with high concentrations of Al, Zn, Fe, phosphate and other ions
Text: It wlll be noted that most of the N-alkyl hydroxamic acids have very low solubilities in aqueous media, with the solubility tending to increase with decreasing number of carbon atoms in the hydroxamic acids. […] This appreciable but limited solubility appears responsible for the effectiveness of N-methylnonanohydroxamic acid in extracting Ga from such leachates, with regard to both rate and extent of the extraction compared to higher carbon number N-alkyl hydroxamic acids. For the extraction to occur, it is necessary that the extractant have some slight solubility in the aqueous Ga-containing medium.

[5] = Example 1: gallium recovery from Lap Sludge by simultaneous dissolution and separation
[6] = Example 4: oxidizing agents with N-methylnonanohydroxamic acid as complexing agent on gallium arsenide (Table 5)
Description: A series of procedures were conducted to test effectiveness of various complexing agents with hydrogen peroxide to oxidize and effect dissolution of gallium arsenide. A 0.5 gram amount of GaAs powder was added to a 50 ml beaker with 20 ml deionized water. The complexing agent was added with stirring, followed by addition of 5 ml 30% hydrogen peroxide in water with stirring. Stirring was continued for about 10 minutes with gradual heating on a hot plate to 85° C., with observation for reaction. The mixtures were then allowed to stand at room temperature for about four days with observation for further changes, and the percentage of the starting gallium which had dissolved was determined by analysis of the liquid by atomic absorption.
Using the procedure of Example 2 and 3.0 ml of N-methylnonanohydroxamic acid as complexing agent, a number of oxidizing agents were employed with gallium arsenide, with results as reported in Table 5.

[7] = observation during about 10 min stirring with heating to 85° C., H2O2
[8] = 0.5 g GaAs, 20 ml water, 5 ml 30% H2O2, heated to 85° C. about 10 min, then about four days at room temp.
[9] = 30% H2SO4 strip of organic phase
[10] = aqueous phase plus dilute nitric acid and other washes
[11] = 3.0 ml N-methylnonanohydroxamic acid as complexing agent

Molecule: CCCCCCCC(=O)NO [octanohydroxamic acid]
Initial Result: % dissolved in 24 hrs. ([1]; 1.48 grams, omitted heating, 24 hrs.): 52.5%
% Ga in Solution After 4 Days (after addn. of 10 ml n-BuOH) ([1]; omitted heating, after addn. of 10 ml n-BuOH, H2O2): 100%

Molecule: CCCCCCCCCCCC(=O)NO [dodecanohydroxamic acid]
effectiveness in reaction and dissolution of gallium arsenide ([1]; H2O2 as oxidizing agent): reaction did not occur
Initial Result [1, 7]: No reaction
% Ga in Solution After 4 Days (omitted heating) ([1]; omitted heating, H2O2): 100%
Initial Result: time to complete reaction ([1]; with 10 ml 2-ethyl hexanol, omitted heating, H2O2): 360 min
Initial Result in 15 min. ([1]; with 10 ml 2-ethyl hexanol, omitted heating, mild exotherm, 15 min.): Some reaction
time for complete reaction ([1]; with a solvent (Test ε)): about 6 hours

Solubility (25° C.) [2]: 1.6 ± 1 ppm
Solubility (25° C.), molarity [2]: 5.71 × 10^-6 molarity
Molecule: CCCCCCCCCC(=O)N(O)CCCCCC [N--hexyldecanohydroxamic acid]

Molecule: N-n-propyl naphthenohydroxamic acid [N--Propyl naphthenohydroxamic acid]
% Decomposition [3]: +0.74%

Molecule: O=P(O)(O)O [Potassium phosphate (K3 PO4), Potassium phosphate]
% Ga in Solution After 4 Days [1]: 100%
Initial Result: time to complete reaction (secs) [1]: 50

Molecule: N-ethyl naphthenohydroxamic acid [N--Ethyl naphthenohydroxamic acid]
% Decomposition [3]: -0.53%

Molecule: CC(O)(P(=O)(O)O)P(=O)(O)O [Dequest ® 2010]
% Ga in Solution After 4 Days [1]: 100%
effectiveness in reaction and dissolution of gallium arsenide ([1]; H2O2 as oxidizing agent): works well

Molecule: O=C(O)CC(O)(CC(=O)O)C(=O)O [Sodium citrate]
% Ga in Solution After 4 Days [1]: 100%

Molecule: O=P(O)(O)CCP(=O)(O)O [H2 O3 PCH2 CH2 PO3 H2, ethylene diphosphonic acid]
effectiveness in reaction and dissolution of gallium arsenide ([1]; H2O2 as oxidizing agent): an insoluble gallium complex may form and precipitate from the aqueous oxidizing medium
Initial Result: time to complete reaction ([1]; heating to 85° C., H2O2): 3 min

Molecule: versatohydroxamic acid [versatohydroxamic acid (not N--alkyl), reference compound]
Solubility (25° C.) [2]: 1600. ppm
Solubility (25° C.), molarity [2]: 8.54 × 10^-3 molarity

Molecule: O=C(O)C(=O)O [Sodium oxalate]
% Ga in Solution After 4 Days [1]: 100%
Initial Result: time to complete reaction ([1]; heating to 85° C., H2O2): 1 min
Initial Result [1, 7]: small prec.

Molecule: CCCCCCCCCc1ccc(O)cc1 [4-nonylphenol]
% Ga in Solution After 4 Days [1]: 0%
Initial Result [1]: No reaction

Solubility (25° C.) [2]: 0.7 ± 1 ppm
Solubility (25° C.), molarity [2]: 1.7 × 10^-6 molarity
Molecule: CCCCCCCCCC(CCCCCCCCC)N(O)C(=O)C1CCCCC1 [N-(1-nonyldecyl) cyclohexanohydroxamic acid]

Molecule: naphthenohydroxamic acid [N--H naphthenohydroxamic acid, reference compound]
% Decomposition [3]: 45.0%

Molecule: O=C(O)CN(CC(=O)O)CC(=O)O [Sodium nitrilo triacetate]
% Ga in Solution After 4 Days [1]: 100%
Initial Result: time to complete reaction ([1]; heating to 85° C., H2O2): 3 min

Molecule: O=P([O-])([O-])OP(=O)([O-])OP(=O)([O-])[O-].[Na+].[Na+].[Na+].[Na+].[Na+] [Sodium Triphosphate]
% Ga in Solution After 4 Days [1]: 100%

Molecule: O=P([O-])(O)O.[Na+] [Monobasic sodium phosphate (NaH2 PO4), Monobasic sodium phosphate]
% Ga in Solution After 4 Days [1, 8]: 0%
Initial Result [1, 7]: No reaction

Molecule: [K+].[OH-] [KOH, potassium hydroxide]
Initial Result [1]: No reaction

Molecule: CCCCCCCCC(=O)N(C)O [N-methylnonanohydroxamic acid]
solubility in a typical phosphate rock treater dust leachate [4]: 20 ppm
solubility in a typical phosphate rock treater dust leachate, molarity [4]: 1.07×10^-4 molarity
As in combined aqueous acid stripping solutions [5, 9]: 15 ppm
Ga in combined aqueous acid stripping solutions [5, 9]: 1100 ppm
As in combined aqueous phase and wash solutions [5, 10]: 2510 ppm
Ga in combined aqueous phase and wash solutions [5, 10]: 114 ppm
arsenic and gallium in water washings of organic phase ([5]; detection limit less than 1 ppm for each element): Neither arsenic nor gallium was detectable
Ga recovered per gram of starting sludge ([5]; starting sludge 17.7 mg Ga/gram): 17.8 mg Ga per gram
As recovered per gram of starting sludge ([5]; starting sludge analyzed 13.4 mg As/gram): 17.3 mg As/gram
% Ga in Solution After 4 Days [1]: 100%
effectiveness in reaction and dissolution of gallium arsenide ([1]; H2O2 as oxidizing agent): effective complexing agent
Solubility (25° C.) [2]: 409. ppm
Solubility (25° C.), molarity [2]: 2.18 × 10^-3 molarity

Molecule: O=P([O-])([O-])O.[Na+].[Na+] [Disbasic Sodium phosphate (Na2 HPO4), Disbasic Sodium phosphate]
% Ga in Solution After 4 Days [1]: 100%
effectiveness in reaction and dissolution of gallium arsenide [1]: effective in causing dissolution, but at a slow rate and with some white precipitate formation

Molecule: CCCCC(CC)COP(=O)(O)OCC(CC)CCCC (centres unmarked) [Di-(2-ethylhexyl) phosphoric acid]
% Ga in Solution After 4 Days [1]: 0%
Initial Result [1]: No reaction

Molecule: O=P([O-])([O-])OP(=O)([O-])[O-].[Na+].[Na+].[Na+].[Na+] [Sodium pyrophosphate Na4 P2 O7, Sodium pyrophosphate]
% Ga in Solution After 4 Days [1]: 100%
Initial Result [1]: white prec.
Initial Result: time to complete reaction (min) [1]: 3

Molecule: N-methyl naphthenohydroxamic acid [N--Methyl naphthenohydroxamic acid]
time to complete dissolution after addition to Test N mixture ([1]; 2.98 grams added to Test N mixture after no reaction in 11.5 min.): 60 s
effectiveness in reaction and dissolution of gallium arsenide ([1]; H2O2 as oxidizing agent): rapid reaction and dissolution of the gallium arsenide
% Decomposition [3]: +0.14%

Molecule: II
Result: time to complete reaction, no heating [6, 11]: 60 s

Molecule: CC(=O)N(C)O [Nmethyl acetohydroxamic acid, N-methyl acetohydroxamic acid]
Initial Result: time to complete dissolution [1]: 5 min
Initial Result: % reacted in 10 min. ([1]; 0.80 grams, omitted heating, 10 min.): 90%
effectiveness in reaction and dissolution of gallium arsenide ([1]; H2O2 as oxidizing agent): the chelated gallium does not readily separate from the aqueous oxidation medium
% Ga in Solution After 4 Days (omitted heating) ([1]; omitted heating, H2O2): 100%

Solubility (25° C.) [2]: 111. ppm and 82. ppm
Molecule: CCCCCCCCCC(=O)N(C)O [N--methyldecanohydroxamic acid]

Molecule: O=S(=O)([O-])OOS(=O)(=O)[O-].[K+].[K+] [Potassium persulfate]
Result [6, 11]: No reaction

Molecule: C=CC(CC(C)(C)CC(C)(C)C)c1ccc2cccnc2c1O (centres unmarked) [Kelex ® 100]
% Ga in Solution After 4 Days [1]: 0%

Molecule: O=C(O)CN(CCN(CC(=O)O)CC(=O)O)CC(=O)O [Ethylene diamine tetracetic acid]
% Ga in Solution After 4 Days [1]: 84.2%

Molecule: O=[N+]([O-])O [HNO3 conc., nitric acid]
Result: time to complete reaction [6, 11]: 50 s
Result: time to complete reaction, no complexing agent ([6]; no complexing agent): 20 min

Solubility (25° C.) [2]: 3.9 ± 1 ppm
Solubility (25° C.), molarity [2]: 1.68 × 10^-5 molarity
Molecule: CCCCCCCCCC(=O)N(O)C(C)C [N--isopropyldecanohydroxamic acid]

Solubility (25° C.) [2]: 1.3 ± 1 ppm
Solubility (25° C.), molarity [2]: 4.60 × 10^-6 molarity
Molecule: CCCCCCCCCCCCCCCC(=O)N(C)O [N--methylhexadecanohydroxamic acid]

Molecule: BrBr [liquid bromine, bromine]
Result: time to complete reaction, no heating [6, 11]: 37 s

Molecule: O.O=P([O-])(O)O.[Na+] [NaH2 PO4.H2 O]
% Ga in Solution After 4 Days [1, 8]: 0%
Initial Result [1, 7]: No reaction

Molecule: [Na+].[OH-] [NaOH, sodium hydroxide]
% Ga in Solution After 4 Days [1]: 100%

Molecule: Oc1cccc2cccnc12 [Oxine (8-hydroxy quinoline), 8-hydroxy quinoline]
Initial Result [1]: Precipitate

Molecule: neotridecanohydroxamic acid
Solubility (25° C.) [2]: 328. ppm
Solubility (25° C.), molarity [2]: 1.43 × 10^-3 molarity

Molecule: CC(=O)NO [Acetohydroxamic Acid]
Initial Result: time to complete dissolution [1]: 25 min
Initial Result: % reacted in 30 min. ([1]; 0.62 grams, omitted heating, 30 min.): 80%
% Ga in Solution After 4 Days (omitted heating) ([1]; omitted heating, H2O2): 100%

From patent US4759917A, “Oxidative dissolution of gallium arsenide and separation of gallium from arsenic” (priority 1987, dated 1988)
